Test results taken from paper PMC7321403, “Synthesis and In Vitro Cytotoxicity and Antibacterial Activity of Novel 1,2,3-Triazol-5-yl-Phosphonates” (Molecules, 2020).
Like-named read-outs stand apart in the source and are kept apart here. One block for each compound: values may come before it.

How the values were obtained:
[1] = system: HL-60 cells (human promyelocytic leukemia)
Method: (§4) Cells were purchased from the American Type Culture Collection (ATCC, Manassas, VA, USA). Human lung adenocarcinoma A549 cells were maintained in Dulbecco's Modified Eagle Medium (DMEM), while mouse fibroblast NIH/3T3 and human promyelocytic leukemia HL-60 cells were maintained in Roswell Park Memorial Institute 1640 medium (RPMI-1640) containing 10% FCS. Media were supplemented with 2 mM GlutaMAX, 100 U/mL penicillin, and 100 µg/mL streptomycin (Life Technologies, Carlsbad, California, USA). Cell cultures were maintained at 37 °C in a humidified incubator in an atmosphere of 5% CO2 (Sanyo, Japan).
(§5) Cytotoxicity of the synthesized molecules was determined on A549, NIH/3T3 and HL-60 cells using the fluorescent Resazurin assay as described previously [46].
(§6) Briefly, cells (A549 and NIH/3T3: 6000, HL-60: 120.000 cells/well) were seeded into 96-well plates (Corning Life Sciences) in media and incubated overnight. Test compounds were dissolved in three-fold amounts of dimethyl sulfoxide (DMSO). Cells were treated with an increasing concentration of test compounds (1–30 µM). […] Cell viability was determined after 72 h incubation. Resazurin reagent (Sigma-Aldrich) was added at a final concentration of 25 µg/mL. After a 2 h incubation at 37 °C in 5% CO2, fluorescence (530 nm excitation/580 nm emission) was recorded on a multimode microplate reader (Cytofluor4000, PerSeptive Biosytems). Viability was calculated with relation to untreated control cells and blank wells containing media without cells. […] A Student’s t test was performed for individual test compound concentrations with relation to untreated control cell viability values.

[2] = system: HL-60 cells (human promyelocytic leukemia); experiment: In vitro cytotoxicity, fluorescent Resazurin assay
Method: as §4, §5, §6

[3] = system: E. coli-GFP; experiment: Antibacterial activity on GFP producing Gram-negative bacteria (fluorimetry); type: cell-based, Escherichia coli; settings: GFP fluorescence, 1–30 µM tested, mean ± SD
Method: (§1) Finally, the biological activity of the synthesized 1,2,3-triazol-5-yl-phosphonates (8, 11–26) was investigated. On the one hand, the antibacterial activity of the compounds was tested on GFP producing Gram-positive (Bacillus subtilis) and Gram-negative (Escherichia coli) bacterial cells. The GFP producing bacteria are an effective tool for screening for antibacterial activity since GFP signal measured via fluorimetry is proportional to the number of bacterial cells. Active compounds would kill bacterial cells, which results in the decrease in GFP fluorescence signal, therefore it is suitable for evaluating the antimicrobial effect of different agents. On the other hand, in vitro cytotoxicity assessments were performed on three different cell lines, such as human lung adenocarcinoma (A549), mouse fibroblast (NIH/3T3) as healthy cell line and human promyelocytic leukemia (HL-60). Table 3 contains the determined IC50 values in antimicrobial and cytotoxicity assays. According to the results, only modest antibacterial activity was detected against the more sensitive Bacillus subtilis strain.
(§2) All reagents were purchased from Sigma-Aldrich (Hungary, Budapest). E. coli-GFP and B. subtilis-GFP bacteria were grown in Lysogeny Broth (Luria-Bertani broth, LB, 10 g tryptone, 5 g yeast extract, 10 g/L NaCl, pH 7.0) medium overnight (ON) at 37 °C in an incubator with continuous shaking. The ON bacterial culture was diluted (E. coli-GFP: 1:10000, B. subtilis-GFP: 1:1000) in LB medium containing 10 µg/mL ampicillin. Two hundred microliters of diluted E. coli suspension per well were transferred to 96-well plates and different agents were added in the appropriate concentration, then incubated in a shaker (600 rpm) for 3 h at 37 °C. Test compounds were dissolved in 3-fold amounts of dimethyl sulfoxide (DMSO). […] For induction of the GFP expression IPTG (0.1 mM final concentration) was added to each well and incubated for 3 h at 37 °C.
(§3) The following incubation samples were centrifuged at 2750 rpm at room temperature (RT) for 5 min and washed twice with 200 µL PBS, with a centrifugation step between the two washes. After a third centrifugation step, the bacterial cells were suspended in 100 µL PBS. The number of bacteria was estimated according to the fluorimetric measurements. The fluorescence of the bacterial cells was measured by the Victor™ 1420 Multilabel Counter (Perkin Elmer, Waltham, MA, USA) at 485/535 nm for 1 sec per well controlled by Wallac 1420 Manager software. Each treatment was repeated in at least 2 wells per plate during the experiments. Percentage fluorescence intensity based on the quantity of E. coli-GFP cells was calculated using untreated control values as 100%. Error was represented by standard deviation (SD).

[4] = in vitro; settings: human
Method: as §4, §5, §6

[5] = In vitro cytotoxicity, fluorescent Resazurin assay; settings: human, HL-60 cells (human promyelocytic leukemia), In Vitro Cytotoxicity (IC50, µM) HL-60, 72 h incubation, 1–30 µM tested, mean ± SD
Method: as §4, §5, §6

[6] = in vitro; settings: mouse
Method: as §4, §5, §6

[7] = system: B. subtilis-GFP; experiment: Antibacterial activity on GFP producing Gram-positive bacteria (fluorimetry); type: cell-based, Bacillus subtilis; settings: GFP fluorescence, 1–30 µM tested, mean ± SD
Method: as §1, §2, §3

[8] = in vitro; settings: human, In Vitro Cytotoxicity (IC50, µM) HL-60, 72 h incubation, 1–30 µM tested, mean ± SD
Method: as §4, §5, §6

[9] = system: A549 cells (human lung adenocarcinoma)
Method: as §4, §5, §6

[10] = system: NIH/3T3 cells (mouse fibroblast)
Method: as §4, §5, §6

[11] = A549 cells (human lung adenocarcinoma)
[12] = NIH/3T3 cells (mouse fibroblast)
[13] = read-out: In Vitro Cytotoxicity (IC50, µM) HL-60, 72 h incubation, 1–30 µM tested, mean ± SD

Compound: CC(C)C[C@H](NC(=O)[C@H](Cc1ccccc1)NC(=O)c1cnccn1)B(O)O [Bortezomib, reference compound]
In Vitro Cytotoxicity (IC50, µM) HL-60 [1]: 7.42 × 10^−3 2.60 × 10^−3 µM
IC50 ([2]; Homo sapiens, HL-60, 72 h, read-out: IC50 for HL60 (positive control), 72 h incubation, value in nM): 7.42 ± 2.6 nM

Compound: CCCCOP(=O)(OCCCC)c1c(-c2ccccc2)nnn1Cc1ccccc1 [Compound 8, Dibutyl (1-benzyl-4-phenyl-1,2,3-triazol-5-yl)phosphonate]
IC50 ([3]; Escherichia coli): > 30 µM
IC50 at 72 h [4, 11]: > 30 µM
IC50 at 72 h [5]: > 30 µM
IC50 at 72 h [6, 12]: 27.5 ± 1.4 µM
IC50 ([7]; Bacillus subtilis): > 30 µM

Compound: COP(=O)(OC)c1c(-c2ccccc2)nnn1Cc1ccccc1 [Compound 11, Dimethyl (1-benzyl-4-phenyl-1,2,3-triazol-5-yl)phosphonate]
IC50 ([3]; Escherichia coli): > 30 µM
IC50 at 72 h [4]: > 30 µM
IC50 at 72 h [6]: > 30 µM
IC50 at 72 h [8]: > 30 µM
IC50 ([7]; Bacillus subtilis): > 30 µM

Compound: CCOP(=O)(OCC)c1c(-c2ccccc2)nnn1Cc1ccccc1 [Compound 12, Diethyl (1-benzyl-4-phenyl-1,2,3-triazol-5-yl)phosphonate]
IC50 ([3]; Escherichia coli): > 30 µM
IC50 at 72 h [4]: > 30 µM
IC50 at 72 h [6]: > 30 µM
IC50 at 72 h [8]: > 30 µM
IC50 ([7]; Bacillus subtilis): > 30 µM

Compound: CCCOP(=O)(OCCC)c1c(-c2ccccc2)nnn1Cc1ccccc1 [Compound 13, Dipropyl (1-benzyl-4-phenyl-1,2,3-triazol-5-yl)phosphonate]
IC50 ([3]; Escherichia coli): > 30 µM
IC50 at 72 h [4, 11]: > 30 µM
IC50 at 72 h [5]: 12.6 ± 1.7 µM
IC50 at 72 h [6, 12]: > 30 µM
IC50 ([7]; Bacillus subtilis): 29.3 ± 1.2 µM

Compound: CC(C)OP(=O)(OC(C)C)c1c(-c2ccccc2)nnn1Cc1ccccc1 [Compound 14, Diisopropyl (1-benzyl-4-phenyl-1,2,3-triazol-5-yl)phosphonate]
IC50 ([3]; Escherichia coli): > 30 µM
IC50 at 72 h [4, 11]: > 30 µM
IC50 at 72 h [5]: > 30 µM
IC50 at 72 h [6, 12]: > 30 µM
IC50 ([7]; Bacillus subtilis): > 30 µM

Compound: CCCCCOP(=O)(OCCCCC)c1c(-c2ccccc2)nnn1Cc1ccccc1 [Compound 15, Dipentyl (1-benzyl-4-phenyl-1,2,3-triazol-5-yl)phosphonate]
IC50 ([3]; Escherichia coli): > 30 µM
IC50 at 72 h [4, 11]: > 30 µM
IC50 at 72 h [5]: 15.4 ± 1.2 µM
IC50 at 72 h [6, 12]: 26.2 ± 1.1 µM
IC50 ([7]; Bacillus subtilis): 23.9 ± 1 µM

Compound: COP(=O)(OC)c1c(-c2ccccc2)nnn1Cc1ccc(C)cc1 [Compound 16, Dimethyl [1-(4-methylbenzyl)-4-phenyl-1,2,3-triazol-5-yl]phosphonate]
IC50 ([3]; Escherichia coli): > 30 µM
IC50 at 72 h [4]: > 30 µM
IC50 [2, 13]: 11000 ± 1200 nM
IC50 at 72 h [6]: 19.8 ± 1.2 µM
IC50 at 72 h [8]: ~10 µM
IC50 ([7]; Bacillus subtilis): > 30 µM

Compound: CCOP(=O)(OCC)c1c(-c2ccccc2)nnn1Cc1ccc(C)cc1 [Compound 17, Diethyl [1-(4-methylbenzyl)-4-phenyl-1,2,3-triazol-5-yl]phosphonate]
IC50 ([3]; Escherichia coli): > 30 µM
IC50 at 72 h [4]: > 30 µM
IC50 at 72 h [6]: > 30 µM
IC50 at 72 h [8]: > 30 µM
IC50 ([7]; Bacillus subtilis): > 30 µM

Compound: CCCCOP(=O)(OCCCC)c1c(-c2ccccc2)nnn1Cc1ccc(C)cc1 [Compound 18, Dibutyl [1-(4-methylbenzyl)-4-phenyl-1,2,3-triazol-5-yl]phosphonate]
IC50 ([3]; Escherichia coli): > 30 µM
IC50 at 72 h [4, 11]: > 30 µM
IC50 at 72 h [5]: > 30 µM
IC50 at 72 h [6, 12]: > 30 µM
IC50 ([7]; Bacillus subtilis): 18.2 ± 1 µM

Compound: CCCCOP(=O)(OCCCC)c1c(-c2ccccc2)nnn1Cc1ccccc1F [Compound 19, Dibutyl [1-(2-fluorobenzyl)-4-phenyl-1,2,3-triazol-5-yl]phosphonate]
IC50 ([3]; Escherichia coli): > 30 µM
IC50 at 72 h [4, 11]: > 30 µM
IC50 at 72 h [5]: 11.7 ± 1.2 µM
IC50 at 72 h [6, 12]: 27.5 ± 1.1 µM
IC50 ([7]; Bacillus subtilis): 19.3 ± 1 µM

Compound: CCCCOP(=O)(OCCCC)c1c(-c2ccccc2)nnn1Cc1cccc(F)c1 [Compound 20, Dibutyl [1-(3-fluorobenzyl)-4-phenyl-1,2,3-triazol-5-yl]phosphonate]
IC50 ([3]; Escherichia coli): > 30 µM
IC50 at 72 h [4, 11]: > 30 µM
IC50 at 72 h [5]: 15.4 ± 1.2 µM
IC50 at 72 h [6, 12]: > 30 µM
IC50 ([7]; Bacillus subtilis): > 30 µM

Compound: CCCCOP(=O)(OCCCC)c1c(-c2ccccc2)nnn1Cc1ccc(F)cc1 [Compound 21, Dibutyl [1-(4-fluorobenzyl)-4-phenyl-1,2,3-triazol-5-yl]phosphonate]
IC50 ([3]; Escherichia coli): > 30 µM
IC50 at 72 h [4, 11]: > 30 µM
IC50 at 72 h [5]: 16.6 ± 1.3 µM
IC50 at 72 h [6, 12]: > 30 µM
IC50 ([7]; Bacillus subtilis): 23.2 ± 1.1 µM

Compound: CCCCOP(=O)(OCCCC)c1c(-c2ccccc2)nnn1Cc1ccc(C(F)(F)F)cc1 [Compound 22, Dibutyl [1-(4-trifluoromethyl)-4-phenyl-1,2,3-triazol-5-yl]phosphonate]
IC50 ([3]; Escherichia coli): > 30 µM
IC50 at 72 h [4, 11]: > 30 µM
IC50 [2, 13]: 9700 ± 1100 nM
IC50 at 72 h [5]: ~10 µM
IC50 at 72 h [6, 12]: 23.1 ± 1.2 µM
IC50 ([7]; Bacillus subtilis): > 30 µM

Compound: CCCCCCCCn1nnc(-c2ccccc2)c1P(=O)(OC)OC [Compound 23, Dimethyl (1-octyl-4-phenyl-1,2,3-triazol-5-yl)phosphonate]
IC50 ([3]; Escherichia coli): > 30 µM
IC50 at 72 h [4]: > 30 µM
IC50 at 72 h [6]: > 30 µM
IC50 at 72 h [8]: > 30 µM
IC50 ([7]; Bacillus subtilis): > 30 µM

Compound: CCCCCCCCn1nnc(-c2ccccc2)c1P(=O)(OCC)OCC [Compound 24, Diethyl (1-octyl-4-phenyl-1,2,3-triazol-5-yl)phosphonate]
IC50 ([3]; Escherichia coli): > 30 µM
IC50 at 72 h [4]: > 30 µM
IC50 at 72 h [6]: > 30 µM
IC50 at 72 h [8]: > 30 µM
IC50 ([7]; Bacillus subtilis): > 30 µM

Compound: CCCCCCCCn1nnc(-c2ccccc2)c1P(=O)(OCCCC)OCCCC [Compound 25, Dibutyl (1-octyl-4-phenyl-1,2,3-triazol-5-yl)phosphonate]
IC50 ([3]; Escherichia coli): > 30 µM
IC50 at 72 h [4, 11]: > 30 µM
IC50 at 72 h [5]: > 30 µM
IC50 at 72 h [6, 12]: > 30 µM
IC50 ([7]; Bacillus subtilis): > 30 µM

IC50 at 72 h [4]: 0.31 ± 0.24 µM
IC50 at 72 h [6]: 5.65 ± 0.81 µM
Compound: COc1cccc2c1C(=O)c1c(O)c3c(c(O)c1C2=O)C[C@@](O)(C(=O)CO)C[C@@H]3O[C@H]1C[C@H](N)[C@H](O)[C@H](C)O1 [Doxorubicin, reference compound]

Compound: C[C@H]1c2cccc(O)c2C(=O)C2=C(O)[C@]3(O)C(=O)C(C(N)=O)=C(O)[C@@H](N(C)C)[C@@H]3[C@@H](O)[C@@H]21 [Doxycycline, reference compound]
IC50 ([3]; Escherichia coli): 0.1 ± 0.02 µM
IC50 ([7]; Bacillus subtilis): 0.04 ± 0.01 µM

Compound: CNC(C)C1CCC(N)C(OC2C(N)CC(N)C(OC3OCC(C)(O)C(NC)C3O)C2O)O1 (centres unmarked) [Gentamicin, reference compound]
IC50 ([3]; Escherichia coli): 4.23 ± 0.99 µM
IC50 ([7]; Bacillus subtilis): 0.49 ± 0.14 µM

Compound: Dibutyl (1-isooctyl-4-phenyl-1,2,3-triazol-5-yl)phosphonate [Compound 26]
IC50 [9]: > 30 µM
IC50 [3]: > 30 µM
IC50 [2, 13]: 26700 ± 1000 nM
IC50 [10]: > 30 µM
IC50 [7]: 29.6 ± 1 µM
